This test concerns the target T1, human α7 nAChR (Homo sapiens, UniProt P36544).
T1 construct: host or cells: GH4C1 cells (pituitary tumor, immortalized cell line)
Briefly: α7 nAChR FLIPR (Fluorometric Imaging Plate Reader) Ca2+ assay, agonist EC50. The format is cell-based. The conditions noted are these: GH4C1 cells stably transfected with human α7 nAChR; Fluo-4 Ca2+ fluorescence; Examples 194 to 205 tested as the HCl salt; read-out: pEC50 value (negative logarithm of the agonist EC50) (converted). On the procedure:
α7 nAChR FLIPR® (Fluorometric Imaging Plate Reader) Assay
Function of the heterologous expressed α7 nAChR was assessed by a FLIPR-Ca^2+ assay. Since nAChRs are non-selective cation channels with high permeability to Ca^2+, these studies were carried out by measuring changes of intracellular Ca^2+ concentration using the Ca^2+-chelating fluorescent dye Fluo-4 and FLIPR® (Fluorometric Imaging Plate Reader) technology.
GH4C1cells (pituitary tumor, immortalized cell line) stably transfected with human α7 nAChR (Biocat ID 96986), were thawed, suspended in growth medium (Ham's Nutrient Mixture F10—Ham's F10, Invitrogen 31550-023, 15% Horse Serum heat inactivated—Invitrogen 26050-047, 2.5% Foetal Bovine Serum—FBS, Gibco 10500-064, 200 μg/ml Hygromycin B—Invitrogen, 10687-010, 10 mg/L Phenol Red—Sigma, P 0290, 1 mM Glutamine—Invitrogen, 25030-024) and plated in 500 cm^2 Triple Flask.
Cells were then incubated at 30° C., 5% CO2 for 72 hours.
On the day of the experiment, cells were washed twice with Assay Buffer (AB) (145 mM NaCl, 5 mM KCl, 1 mM MgCl2, 2 mM CaCl2, 20 mM HEPES, 5.5 mM Glucose pH=7.3) containing 2.5 mM Probenecid. Changes in the intracellular Ca^2+ content of stably transfected cells were measured using the Ca^2+ chelating dye Fluo-4 (Tef Labs 0152) in conjunction with a FLIPR® (Molecular Devices). The cell permeant dye Fluo-4 was prepared to a concentration of 1 mM in 100% DMSO and 10% Pluronic acid. The dye was then diluted with AB to a final concentration of 2 μM and placed on the cells. After 45-60 minutes dye loading incubation at 37° C., the unincorporated dye was removed from the cells by washing (80 μL, 3 times) with AB, and a final volume of 30 μL/well of AB was left in each well.
Plates containing test compounds (dissolved in 100% DMSO at 2 mM and serially diluted with DMSO) were copied into “daughter” plates (1 μL/well dispensation). Just prior to starting the assay, the “daughter” plate was diluted with 50 μL/well of AB.
The plates were then placed in the FLIPR®, and cell fluorescence was determined before drug addition (30 seconds) and monitored (excitation 488 nm, emission 510-580 nm) immediately following exposure to compounds. Maximum fluorescence values were recorded and fitted for agonist EC50 calculations.
The results are expressed as pEC50 values. A pEC50 is the negative logarithm of the agonist EC50 calculation as determined in the α7 nAChR FLIPR® assay. […] Variations in pEC50 may arise between tests.
T1 sequence (P36544 23-502): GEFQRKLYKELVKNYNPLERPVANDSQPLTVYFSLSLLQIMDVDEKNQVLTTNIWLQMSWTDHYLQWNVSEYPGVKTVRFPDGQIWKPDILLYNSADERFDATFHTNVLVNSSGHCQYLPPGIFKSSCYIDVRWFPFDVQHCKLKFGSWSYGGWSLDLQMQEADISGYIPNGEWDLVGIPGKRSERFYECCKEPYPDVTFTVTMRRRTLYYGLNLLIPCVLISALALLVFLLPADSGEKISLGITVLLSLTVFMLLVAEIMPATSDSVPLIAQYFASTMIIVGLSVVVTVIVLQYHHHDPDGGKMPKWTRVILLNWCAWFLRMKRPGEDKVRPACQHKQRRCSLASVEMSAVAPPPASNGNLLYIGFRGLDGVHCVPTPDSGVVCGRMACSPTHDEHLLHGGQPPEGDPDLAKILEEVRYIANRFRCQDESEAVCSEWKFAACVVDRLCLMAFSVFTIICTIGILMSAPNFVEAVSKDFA
The term EC50 denotes the midpoint of the concentration-response curve. `O=C(Nc1ccc(-c2nnc(NCCCN3CCOCC3)o2)c(C(F)(F)F)c1)c1ccccc1` [Example 93, N-[4-(5-{[3-(4-morpholinyl)propyl]amino}-1,3,4-oxadiazol-2-yl)-3-(trifluoromethyl)phenyl]benzamide]: the EC50 was at most 1000 nM.

Turning to `O=C(Nc1ccc(-c2nnc(NCCCCN3CCOCC3)o2)c(C(F)(F)F)c1)c1ccccc1` [Example 94, N-[4-(5-{[4-(4-morpholinyl)butyl]amino}-1,3,4-oxadiazol-2-yl)-3-(trifluoromethyl)phenyl]benzamide], the EC50 was at most 100 nM.

In the case of `CCN(CC)CCCNc1nnc(-c2ccc(NC(=O)c3ccccc3)cc2C(F)(F)F)o1` [Example 95, N-[4-(5-{[3-(diethylamino)propyl]amino}-1,3,4-oxadiazol-2-yl)-3-(trifluoromethyl)phenyl]benzamide], the EC50 is at most 1000 nM.

Regarding `CCN(CC)CCCCNc1nnc(-c2ccc(NC(=O)c3ccccc3)cc2C(F)(F)F)o1` [Example 96, N-[4-(5-{[4-(diethylamino)butyl]amino}-1,3,4-oxadiazol-2-yl)-3-(trifluoromethyl)phenyl]benzamide], the EC50 was at most 100 nM.

As for `O=C(Nc1ccc(-c2nnc(NCCCN3CCCCC3)o2)c(C(F)(F)F)c1)c1ccccc1` [Example 97, N-[4-(5-{[3-(1-piperidinyl)propyl]amino}-1,3,4-oxadiazol-2-yl)-3-(trifluoromethyl)phenyl]benzamide], the EC50 is at most 1000 nM.

On to `O=C(Nc1ccc(-c2nnc(NCCCCN3CCCCC3)o2)c(C(F)(F)F)c1)c1ccccc1` [Example 98, N-[4-(5-{[4-(1-piperidinyl)butyl]amino}-1,3,4-oxadiazol-2-yl)-3-(trifluoromethyl)phenyl]benzamide], for which the EC50 was at most 100 nM.

`O=C(Nc1ccc(-c2nnc(NCCCN3CCCC3)o2)c(Cl)c1)c1ccccc1` [Example 99]: the EC50 is at most 1000 nM.

Take `O=C(Nc1ccc(-c2nnc(NCCCCN3CCCC3)o2)c(Cl)c1)c1ccccc1` [Example 100, N-[3-chloro-4-(5-{[4-(1-pyrrolidinyl)butyl]amino}-1,3,4-oxadiazol-2-yl)phenyl]benzamide]: the EC50 is at most 100 nM.

For `O=C(Nc1ccc(-c2nnc(NCCCN3CCOCC3)o2)c(Cl)c1)c1ccccc1` [Example 101, N-[3-chloro-4-(5-{[3-(4-morpholinyl)propyl]amino}-1,3,4-oxadiazol-2-yl)phenyl]benzamide], the EC50 was at most 1000 nM.

Consider `O=C(Nc1ccc(-c2nnc(NCCCCN3CCOCC3)o2)c(Cl)c1)c1ccccc1` [Example 102, N-[3-chloro-4-(5-{[4-(4-morpholinyl)butyl]amino}-1,3,4-oxadiazol-2-yl)phenyl]benzamide], for which the EC50 is at most 100 nM.

On to `CCN(CC)CCCNc1nnc(-c2ccc(NC(=O)c3ccccc3)cc2Cl)o1` [Example 103, N-[3-chloro-4-(5-{[3-(diethylamino)propyl]amino}-1,3,4-oxadiazol-2-yl)phenyl]benzamide], for which the EC50 was at most 1000 nM.

`CCN(CC)CCCCNc1nnc(-c2ccc(NC(=O)c3ccccc3)cc2Cl)o1` [Example 104, N-[3-chloro-4-(5-{[4-(diethylamino)butyl]amino}-1,3,4-oxadiazol-2-yl)phenyl]benzamide]: the EC50 was at most 100 nM.

Take `O=C(Nc1ccc(-c2nnc(NCCCN3CCCCC3)o2)c(Cl)c1)c1ccccc1` [Example 105, N-[3-chloro-4-(5-{[3-(1-piperidinyl)propyl]amino}-1,3,4-oxadiazol-2-yl)phenyl]benzamide]: the EC50 was at most 1000 nM.

As to `O=C(Nc1ccc(-c2nnc(NCCCCN3CCCCC3)o2)c(Cl)c1)c1ccccc1` [Example 106, N-[3-chloro-4-(5-{[4-(1-piperidinyl)butyl]amino}-1,3,4-oxadiazol-2-yl)phenyl]benzamide], the EC50 was at most 100 nM.

Turning to `O=C(Nc1ccc(-c2nnc(NCCCN3CCCC3)o2)c(F)c1)c1ccccc1` [Example 107, N-[3-fluoro-4-(5-{[3-(1-pyrrolidinyl)propyl]-amino}-1,3,4-oxadiazol-2-yl)phenyl]benzamide], the EC50 was at most 1000 nM.

`O=C(Nc1ccc(-c2nnc(NCCCCN3CCCC3)o2)c(F)c1)c1ccccc1` [Example 108, N-[3-fluoro-4-(5-{[4-(1-pyrrolidinyl)butyl]amino}-1,3,4-oxadiazol-2-yl)phenyl]benzamide]: the EC50 is at most 100 nM.

Take `CCN(CC)CCCNc1nnc(-c2ccc(NC(=O)c3ccccc3)cc2F)o1` [Example 111, N-[4-(5-{[3-(diethylamino)propyl]amino}-1,3,4-oxadiazol-2-yl)-3-fluorophenyl]benzamide]: the EC50 was at most 1000 nM.

As for `CCN(CC)CCCCNc1nnc(-c2ccc(NC(=O)c3ccccc3)cc2F)o1` [Example 112, N-[4-(5-{[4-(diethylamino)butyl]amino}-1,3,4-oxadiazol-2-yl)-3-fluorophenyl]benzamide], the EC50 is at most 100 nM.

Regarding `O=C(Nc1ccc(-c2nnc(NCCCN3CCCCC3)o2)c(F)c1)c1ccccc1` [Example 113, N-[3-fluoro-4-(5-{[3-(1-piperidinyl)propyl]amino}-1,3,4-oxadiazol-2-yl)phenyl]benzamide], the EC50 was at most 1000 nM.

As to `O=C(Nc1ccc(-c2nnc(NCCCCN3CCCCC3)o2)c(F)c1)c1ccccc1` [Example 114, N-[3-fluoro-4-(5-{[4-(1-piperidinyl)butyl]amino}-1,3,4-oxadiazol-2-yl)phenyl]benzamide], the EC50 is at most 100 nM.

Regarding `O=C(Nc1ccc(-c2nnc(NCCCCN3CCCC3)o2)cc1)c1ccccc1` [Example 115, N-[4-(5-{[4-(1-pyrrolidinyl)butyl]amino}-1,3,4-oxadiazol-2-yl)phenyl]benzamide], the EC50 was at most 100 nM.

As for `O=C(Nc1ccc(-c2nnc(NCCCCN3CCOCC3)o2)cc1)c1ccccc1` [Example 116, N-[4-(5-{[4-(4-morpholinyl)butyl]amino}-1,3,4-oxadiazol-2-yl)phenyl]benzamide], the EC50 was at most 1000 nM.

Consider `O=C(Nc1ccc(-c2nnc(NCCCN3CCOCC3)o2)cc1)c1ccccc1` [Example 117, N-[4-(5-{[3-(4-morpholinyl)propyl]amino}-1,3,4-oxadiazol-2-yl)phenyl]benzamide], for which the EC50 was at most 1000 nM.

For the compound `CCN(CC)CCCNc1nnc(-c2ccc(NC(=O)c3ccccc3)cc2)o1` [Example 118, N-[4-(5-{[3-(diethylamino)propyl]amino}-1,3,4-oxadiazol-2-yl)phenyl]benzamide], the EC50 is at most 1000 nM.

`CCN(CC)CCCCNc1nnc(-c2ccc(NC(=O)c3ccccc3)cc2)o1` [Example 119, N-[4-(5-{[4-(diethylamino)butyl]amino}-1,3,4-oxadiazol-2-yl)phenyl]benzamide]: the EC50 is at most 100 nM.

Take `COc1cc(NC(=O)c2ccccc2F)ccc1-c1nnc(NCCCN2CCN3CCC2CC3)o1` [Example 120, N-[4-(5-{[3-(1,4-diazabicyclo[3.2.2]non-4-yl)propyl]amino}-1,3,4-oxadiazol-2-yl)-3-(methyloxy)phenyl]-2-fluorobenzamide]: the EC50 is at most 100 nM.

As to `O=C(Nc1ccc(-c2nnc(NCCCN3CCN4CCC3CC4)o2)c(F)c1)c1ccccc1F` [Example 121, N-[4-(5-{[3-(1,4-diazabicyclo[3.2.2]non-4-yl)propyl]amino}-1,3,4-oxadiazol-2-yl)-3-fluorophenyl]-2-fluorobenzamide], the EC50 was at most 100 nM.

(Values after patent publication US20090105217A1, “2-PHENYL-5-AMINO-1,3,4-OXADIAZOLES AND THEIR USE AS NICOTINIC ACETYLCHOLINE RECEPTOR LIGANDS” (priority 2007, published 2009).)
